Laboratory results reported in ChEMBL document CHEMBL4507289, “Data for DCP probe GSM1” (2021).

Key:
[1] = system: Tyrosine-protein kinase ABL1 (Homo sapiens), P00519 [H396P]; details: Compound concentration 1000.0 nM
[2] = system: Tyrosine-protein kinase ABL1 (Homo sapiens), P00519 [Q252H]; details: Compound concentration 1000.0 nM
[3] = biological target: Tyrosine-protein kinase ABL1 (Homo sapiens) (UniProt P00519); details: Compound concentration 1000.0 nM
[4] = biological target: Mitogen-activated protein kinase kinase kinase 6 (Homo sapiens) (UniProt O95382); details: Compound concentration 1000.0 nM
[5] = biological target: Aurora kinase B (Homo sapiens) (UniProt Q96GD4); details: Compound concentration 1000.0 nM
[6] = biological target: Casein kinase I isoform epsilon (Homo sapiens) (UniProt P49674); details: Compound concentration 1000.0 nM
[7] = biological target: Casein kinase I isoform gamma-3 (Homo sapiens) (UniProt Q9Y6M4); details: Compound concentration 1000.0 nM
[8] = biological target: Serine/threonine-protein kinase DCLK3 (Homo sapiens) (UniProt Q9C098); details: Compound concentration 1000.0 nM
[9] = biological target: Epithelial discoidin domain-containing receptor 1 (Homo sapiens) (UniProt Q08345); details: Compound concentration 1000.0 nM
Epithelial discoidin domain-containing receptor 1 (Homo sapiens), sequence (Q08345 whole entry, the tested form may be a part): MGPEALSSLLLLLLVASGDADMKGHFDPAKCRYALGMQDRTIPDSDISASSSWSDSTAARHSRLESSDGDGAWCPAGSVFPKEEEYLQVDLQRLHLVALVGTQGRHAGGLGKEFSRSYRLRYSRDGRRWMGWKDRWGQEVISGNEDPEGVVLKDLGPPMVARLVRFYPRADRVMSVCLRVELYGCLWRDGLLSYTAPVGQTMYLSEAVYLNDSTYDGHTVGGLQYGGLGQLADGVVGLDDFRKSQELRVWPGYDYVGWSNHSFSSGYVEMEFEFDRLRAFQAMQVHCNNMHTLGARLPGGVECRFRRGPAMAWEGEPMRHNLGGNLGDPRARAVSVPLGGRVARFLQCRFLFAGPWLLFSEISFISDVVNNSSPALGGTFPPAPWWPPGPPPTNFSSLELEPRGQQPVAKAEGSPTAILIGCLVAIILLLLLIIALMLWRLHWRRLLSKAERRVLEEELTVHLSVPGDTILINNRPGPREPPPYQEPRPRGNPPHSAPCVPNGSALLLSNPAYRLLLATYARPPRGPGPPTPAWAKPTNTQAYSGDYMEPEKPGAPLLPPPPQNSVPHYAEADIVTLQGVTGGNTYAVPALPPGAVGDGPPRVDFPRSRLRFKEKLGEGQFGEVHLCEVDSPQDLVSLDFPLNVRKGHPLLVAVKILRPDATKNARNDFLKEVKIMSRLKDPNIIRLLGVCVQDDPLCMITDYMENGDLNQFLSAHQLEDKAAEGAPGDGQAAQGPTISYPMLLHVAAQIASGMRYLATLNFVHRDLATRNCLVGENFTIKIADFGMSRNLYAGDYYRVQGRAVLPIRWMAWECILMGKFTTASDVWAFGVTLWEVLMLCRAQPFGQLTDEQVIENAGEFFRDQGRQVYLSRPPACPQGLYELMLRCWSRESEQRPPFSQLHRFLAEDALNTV

[10] = biological target: Myotonin-protein kinase (Homo sapiens) (UniProt Q09013); details: Compound concentration 1000.0 nM
[11] = biological target: Serine/threonine-protein kinase 17B (Homo sapiens) (UniProt O94768); details: Compound concentration 1000.0 nM
[12] = system: Epidermal growth factor receptor (Homo sapiens), P00533 [UNDEFINED MUTATION]; details: Compound concentration 1000.0 nM
[13] = system: Epidermal growth factor receptor (Homo sapiens), P00533 [L858R]; details: Compound concentration 1000.0 nM
[14] = biological target: Ephrin type-A receptor 4 (Homo sapiens) (UniProt P54764); details: Compound concentration 1000.0 nM
[15] = biological target: Receptor tyrosine-protein kinase erbB-3 (Homo sapiens) (UniProt P21860); details: Compound concentration 1000.0 nM
[16] = biological target: Tyrosine-protein kinase Fes/Fps (Homo sapiens) (UniProt P07332); details: Compound concentration 1000.0 nM
[17] = biological target: Cyclin-G-associated kinase (Homo sapiens) (UniProt O14976); details: Compound concentration 1000.0 nM
[18] = biological target: Hormonally up-regulated neu tumor-associated kinase (Homo sapiens) (UniProt P57058); details: Compound concentration 1000.0 nM
[19] = biological target: Serine/threonine-protein kinase STK11 (Homo sapiens) (UniProt Q15831); details: Compound concentration 1000.0 nM
[20] = biological target: Serine/threonine-protein kinase 10 (Homo sapiens) (UniProt O94804); details: Compound concentration 1000.0 nM
[21] = biological target: MAP kinase-activated protein kinase 2 (Homo sapiens) (UniProt P49137); details: Compound concentration 1000.0 nM
MAP kinase-activated protein kinase 2 (Homo sapiens), sequence (P49137 whole entry, looked up): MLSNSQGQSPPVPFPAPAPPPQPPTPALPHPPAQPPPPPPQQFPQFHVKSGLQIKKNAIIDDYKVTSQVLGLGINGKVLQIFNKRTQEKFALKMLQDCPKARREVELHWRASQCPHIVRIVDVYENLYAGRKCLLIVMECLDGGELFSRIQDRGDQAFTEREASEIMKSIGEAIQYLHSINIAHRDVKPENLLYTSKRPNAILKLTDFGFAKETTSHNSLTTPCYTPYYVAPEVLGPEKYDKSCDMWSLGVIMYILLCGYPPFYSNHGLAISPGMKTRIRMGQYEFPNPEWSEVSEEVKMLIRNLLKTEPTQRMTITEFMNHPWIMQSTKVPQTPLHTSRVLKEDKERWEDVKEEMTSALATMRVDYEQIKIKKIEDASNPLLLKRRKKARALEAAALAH

[22] = biological target: Serine/threonine-protein kinase MARK2 (Homo sapiens) (UniProt Q7KZI7); details: Compound concentration 1000.0 nM
[23] = biological target: Microtubule-associated serine/threonine-protein kinase 1 (Homo sapiens) (UniProt Q9Y2H9); details: Compound concentration 1000.0 nM
[24] = biological target: Mitogen-activated protein kinase kinase kinase 10 (Homo sapiens) (UniProt Q02779); details: Compound concentration 1000.0 nM
[25] = biological target: Serine/threonine-protein kinase MRCK beta (Homo sapiens) (UniProt Q9Y5S2); details: Compound concentration 1000.0 nM
Serine/threonine-protein kinase MRCK beta (Homo sapiens), sequence (Q9Y5S2 whole entry): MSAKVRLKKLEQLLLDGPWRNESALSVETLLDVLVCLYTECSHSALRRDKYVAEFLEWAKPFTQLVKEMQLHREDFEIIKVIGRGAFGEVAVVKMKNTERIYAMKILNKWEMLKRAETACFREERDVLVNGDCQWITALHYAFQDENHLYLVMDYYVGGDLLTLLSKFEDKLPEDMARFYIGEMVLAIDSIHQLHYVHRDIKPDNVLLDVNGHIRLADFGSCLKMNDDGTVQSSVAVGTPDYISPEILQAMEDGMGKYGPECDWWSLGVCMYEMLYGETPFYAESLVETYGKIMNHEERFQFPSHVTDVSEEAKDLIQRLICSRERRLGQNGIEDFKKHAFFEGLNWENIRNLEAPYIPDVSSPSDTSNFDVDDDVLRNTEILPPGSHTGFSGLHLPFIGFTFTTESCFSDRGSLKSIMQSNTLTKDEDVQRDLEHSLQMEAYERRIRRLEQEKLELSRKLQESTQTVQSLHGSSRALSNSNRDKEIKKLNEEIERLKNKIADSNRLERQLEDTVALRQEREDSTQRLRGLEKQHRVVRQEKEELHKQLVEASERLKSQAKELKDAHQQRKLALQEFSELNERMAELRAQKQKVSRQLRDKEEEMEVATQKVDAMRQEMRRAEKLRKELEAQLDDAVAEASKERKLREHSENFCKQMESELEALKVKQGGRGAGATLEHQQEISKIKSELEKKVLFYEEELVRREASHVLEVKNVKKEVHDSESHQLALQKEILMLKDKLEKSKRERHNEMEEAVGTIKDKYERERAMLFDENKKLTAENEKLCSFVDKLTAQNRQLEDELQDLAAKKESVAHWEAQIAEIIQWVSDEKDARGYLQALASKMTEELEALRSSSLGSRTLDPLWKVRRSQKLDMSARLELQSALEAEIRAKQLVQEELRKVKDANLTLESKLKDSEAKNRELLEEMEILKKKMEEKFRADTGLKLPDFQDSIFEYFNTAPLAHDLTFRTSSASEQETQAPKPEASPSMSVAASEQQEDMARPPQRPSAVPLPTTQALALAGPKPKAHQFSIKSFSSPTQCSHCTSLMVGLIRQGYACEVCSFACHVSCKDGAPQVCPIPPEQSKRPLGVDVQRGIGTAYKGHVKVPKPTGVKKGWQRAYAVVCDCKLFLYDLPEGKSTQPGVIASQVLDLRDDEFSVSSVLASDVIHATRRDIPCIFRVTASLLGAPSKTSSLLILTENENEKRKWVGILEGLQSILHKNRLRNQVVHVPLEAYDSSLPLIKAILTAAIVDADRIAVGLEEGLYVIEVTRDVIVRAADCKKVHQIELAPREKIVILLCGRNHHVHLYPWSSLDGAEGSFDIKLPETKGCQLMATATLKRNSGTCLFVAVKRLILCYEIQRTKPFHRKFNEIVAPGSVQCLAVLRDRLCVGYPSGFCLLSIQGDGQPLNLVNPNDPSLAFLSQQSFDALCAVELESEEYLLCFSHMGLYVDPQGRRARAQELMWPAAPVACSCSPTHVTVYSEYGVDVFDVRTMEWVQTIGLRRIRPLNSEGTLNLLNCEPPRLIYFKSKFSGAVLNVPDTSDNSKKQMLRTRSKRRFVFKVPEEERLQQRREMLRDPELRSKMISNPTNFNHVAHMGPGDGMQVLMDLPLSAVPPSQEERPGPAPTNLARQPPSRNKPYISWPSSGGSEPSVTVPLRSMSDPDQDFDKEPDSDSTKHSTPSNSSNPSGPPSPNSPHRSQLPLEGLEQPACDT

[26] = biological target: Macrophage-stimulating protein receptor (Homo sapiens) (UniProt Q04912); details: Compound concentration 1000.0 nM
[27] = biological target: Serine/threonine-protein kinase Nek2 (Homo sapiens) (UniProt P51955); details: Compound concentration 1000.0 nM
Serine/threonine-protein kinase Nek2 (Homo sapiens), sequence (P51955 whole entry): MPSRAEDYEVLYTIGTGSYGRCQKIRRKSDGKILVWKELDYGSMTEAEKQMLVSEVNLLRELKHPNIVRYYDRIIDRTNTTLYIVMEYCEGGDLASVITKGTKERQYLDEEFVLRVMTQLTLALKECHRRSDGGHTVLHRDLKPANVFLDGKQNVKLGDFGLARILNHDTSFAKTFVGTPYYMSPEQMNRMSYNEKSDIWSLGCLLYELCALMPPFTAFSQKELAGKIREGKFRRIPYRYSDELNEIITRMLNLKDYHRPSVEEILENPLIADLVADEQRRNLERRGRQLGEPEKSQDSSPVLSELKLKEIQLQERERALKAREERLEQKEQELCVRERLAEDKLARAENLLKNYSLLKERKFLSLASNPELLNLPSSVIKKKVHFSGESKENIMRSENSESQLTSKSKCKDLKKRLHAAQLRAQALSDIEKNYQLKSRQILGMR

[28] = biological target: Serine/threonine-protein kinase NLK (Homo sapiens) (UniProt Q9UBE8); details: Compound concentration 1000.0 nM
[29] = biological target: Mitogen-activated protein kinase 13 (Homo sapiens) (UniProt O15264); details: Compound concentration 1000.0 nM
[30] = system: Phosphatidylinositol 4,5-bisphosphate 3-kinase catalytic subunit alpha isoform (Homo sapiens), P42336 [E542K]; details: Compound concentration 1000.0 nM
[31] = biological target: Phosphatidylinositol 5-phosphate 4-kinase type-2 beta (Homo sapiens) (UniProt P78356); details: Compound concentration 1000.0 nM
Phosphatidylinositol 5-phosphate 4-kinase type-2 beta (Homo sapiens), sequence (P78356 whole entry): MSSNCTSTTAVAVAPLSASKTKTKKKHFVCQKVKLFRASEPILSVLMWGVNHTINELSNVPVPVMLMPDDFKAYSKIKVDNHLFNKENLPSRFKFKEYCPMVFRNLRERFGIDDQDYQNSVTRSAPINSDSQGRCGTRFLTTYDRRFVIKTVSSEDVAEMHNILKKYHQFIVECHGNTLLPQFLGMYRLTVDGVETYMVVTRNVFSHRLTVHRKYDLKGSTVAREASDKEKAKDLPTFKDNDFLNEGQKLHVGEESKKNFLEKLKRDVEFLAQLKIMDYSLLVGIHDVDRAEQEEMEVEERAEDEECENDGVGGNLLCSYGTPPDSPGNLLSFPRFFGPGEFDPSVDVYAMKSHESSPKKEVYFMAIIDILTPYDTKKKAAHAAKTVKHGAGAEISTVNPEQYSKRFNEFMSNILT

[32] = biological target: Serine/threonine-protein kinase PLK2 (Homo sapiens) (UniProt Q9NYY3); details: Compound concentration 1000.0 nM
Serine/threonine-protein kinase PLK2 (Homo sapiens), sequence (Q9NYY3 whole entry, looked up): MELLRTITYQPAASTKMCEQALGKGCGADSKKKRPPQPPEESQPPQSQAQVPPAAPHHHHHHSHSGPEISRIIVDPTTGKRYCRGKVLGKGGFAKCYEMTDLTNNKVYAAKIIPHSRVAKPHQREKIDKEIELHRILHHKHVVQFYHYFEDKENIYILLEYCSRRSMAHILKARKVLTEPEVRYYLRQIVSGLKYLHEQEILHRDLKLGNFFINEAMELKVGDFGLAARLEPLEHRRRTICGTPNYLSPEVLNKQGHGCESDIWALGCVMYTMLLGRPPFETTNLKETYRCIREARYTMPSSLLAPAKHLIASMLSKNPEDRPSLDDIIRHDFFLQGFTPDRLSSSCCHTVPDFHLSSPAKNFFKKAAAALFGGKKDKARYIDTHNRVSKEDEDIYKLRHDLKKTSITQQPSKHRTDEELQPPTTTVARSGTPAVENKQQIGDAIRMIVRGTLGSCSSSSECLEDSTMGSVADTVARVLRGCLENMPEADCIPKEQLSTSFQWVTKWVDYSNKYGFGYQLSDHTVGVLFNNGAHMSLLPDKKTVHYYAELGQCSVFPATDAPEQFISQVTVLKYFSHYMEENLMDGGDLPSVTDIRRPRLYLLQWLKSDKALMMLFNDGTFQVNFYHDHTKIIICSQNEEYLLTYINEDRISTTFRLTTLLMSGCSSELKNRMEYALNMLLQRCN

[33] = biological target: Serine/threonine-protein kinase PLK3 (Homo sapiens) (UniProt Q9H4B4); details: Compound concentration 1000.0 nM
[34] = biological target: Serine/threonine-protein kinase PLK4 (Homo sapiens) (UniProt O00444); details: Compound concentration 1000.0 nM
[35] = biological target: Protein kinase C theta type (Homo sapiens) (UniProt Q04759); details: Compound concentration 1000.0 nM
[36] = biological target: Proto-oncogene tyrosine-protein kinase receptor Ret (Homo sapiens) (UniProt P07949); details: Compound concentration 1000.0 nM
[37] = biological target: Serine/threonine-protein kinase RIO2 (Homo sapiens) (UniProt Q9BVS4); details: Compound concentration 1000.0 nM
[38] = biological target: Ribosomal protein S6 kinase alpha-1 (Homo sapiens) (UniProt Q15418); details: Compound concentration 1000.0 nM
[39] = biological target: Serine/threonine-protein kinase TAO1 (Homo sapiens) (UniProt Q7L7X3); details: Compound concentration 1000.0 nM
[40] = biological target: Serine/threonine-protein kinase VRK2 (Homo sapiens) (UniProt Q86Y07); details: Compound concentration 1000.0 nM
Serine/threonine-protein kinase VRK2 (Homo sapiens), sequence (Q86Y07 whole entry): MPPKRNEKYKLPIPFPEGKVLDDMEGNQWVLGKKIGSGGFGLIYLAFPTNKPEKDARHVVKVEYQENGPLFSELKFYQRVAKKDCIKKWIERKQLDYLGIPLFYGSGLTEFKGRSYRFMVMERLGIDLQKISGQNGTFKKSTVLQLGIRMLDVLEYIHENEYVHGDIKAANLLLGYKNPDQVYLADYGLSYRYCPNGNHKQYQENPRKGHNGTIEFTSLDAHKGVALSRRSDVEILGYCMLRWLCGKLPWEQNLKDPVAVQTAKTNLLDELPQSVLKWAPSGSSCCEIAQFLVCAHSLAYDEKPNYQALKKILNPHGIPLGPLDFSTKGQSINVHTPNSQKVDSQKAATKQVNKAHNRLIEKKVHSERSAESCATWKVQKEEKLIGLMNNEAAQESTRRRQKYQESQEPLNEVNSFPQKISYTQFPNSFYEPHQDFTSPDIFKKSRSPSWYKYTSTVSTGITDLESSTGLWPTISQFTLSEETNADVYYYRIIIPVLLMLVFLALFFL

[41] = biological target: Serine/threonine-protein kinase WNK1 (Homo sapiens) (UniProt Q9H4A3); details: Compound concentration 1000.0 nM
[42] = biological target: Serine/threonine-protein kinase WNK4 (Homo sapiens) (UniProt Q96J92); details: Compound concentration 1000.0 nM
[43] = biological target: Delta-type opioid receptor (Homo sapiens) (UniProt P41143); details: Compound concentration 10.0 uM
[44] = biological target: Muscarinic acetylcholine receptor M5 (Homo sapiens) (UniProt P08912); details: Compound concentration 10.0 uM
[45] = biological target: Sigma intracellular receptor 2 (Homo sapiens, UniProt Q5BJF2); details: Compound concentration 10.0 uM

Which results are given for `COc1cc(-c2cn([C@H]3CCc4ccccc4N(CC(F)(F)F)C3=O)nn2)ccc1-n1ccc(C)n1`?
residual activity [1]: 70%; residual activity [2]: 90%; residual activity [3]: 75%; residual activity [4]: 53%; residual activity [5]: 89%; residual activity [6]: 100%; residual activity [7]: 86%; residual activity [8]: 100%; residual activity [9]: 100%; residual activity [10]: 96%; residual activity [11]: 100%; residual activity [12]: 100%; residual activity [13]: 97%; residual activity [14]: 92%; residual activity [15]: 77%; residual activity [16]: 100%; residual activity [17]: 92%; residual activity [18]: 100%; residual activity [19]: 100%; residual activity [20]: 100%; residual activity [21]: 90%; residual activity [22]: 93%; residual activity [23]: 100%; residual activity [24]: 96%; residual activity [25]: 100%; residual activity [26]: 96%; residual activity [27]: 100%; residual activity [28]: 100%; residual activity [29]: 88%; residual activity [30]: 82%; residual activity [31]: 65%; residual activity [32]: 100%; residual activity [33]: 96%; residual activity [34]: 73%; residual activity [35]: 94%; residual activity [36]: 91%; residual activity [37]: 96%; residual activity [38]: 82%; residual activity [39]: 92%; residual activity [40]: 100%; residual activity [41]: 100%; residual activity [42]: 100%; inhibition [43]: 16.7%; inhibition [44]: 0.39%; inhibition [45]: 72%

How did the residual activity [1] turn out when `COc1cc(-c2cn([C@H]3CCc4c(F)cccc4N(CC(F)(F)F)C3=O)nn2)ccc1-n1cnc(C)c1` was run?
Its residual activity is 100%.

And the residual activity [2]?
Its residual activity is 95%.

And the residual activity [3]?
Its residual activity is 100%.

What about the residual activity [4] of the same molecule?
The residual activity was 98%.

What about the residual activity [5] of the same molecule?
The residual activity was 100%.

What about the residual activity [6] of the same molecule?
Its residual activity is 80%.

And the residual activity [7]?
The residual activity was 86%.

And the residual activity [8]?
The residual activity was 100%.

And the residual activity [9]?
Its residual activity is 100%.

What about the residual activity [10] of the same molecule?
Its residual activity is 99%.

What about the residual activity [11] of the same molecule?
Its residual activity is 99%.

What about the residual activity [12] of the same molecule?
The residual activity was 94%.

What about the residual activity [13] of the same molecule?
The residual activity was 100%.

What about the residual activity [14] of the same molecule?
The residual activity was 100%.

And the residual activity [15]?
The residual activity was 98%.

What about the residual activity [16] of the same molecule?
The residual activity was 100%.

And the residual activity [17]?
The residual activity was 88%.

And the residual activity [18]?
Its residual activity is 100%.

And the residual activity [19]?
The residual activity was 100%.

And the residual activity [20]?
Its residual activity is 100%.

What about the residual activity [21] of the same molecule?
The residual activity was 100%.

And the residual activity [22]?
The residual activity was 100%.

And the residual activity [23]?
Its residual activity is 100%.

What about the residual activity [24] of the same molecule?
Its residual activity is 100%.

What about the residual activity [25] of the same molecule?
The residual activity was 100%.

And the residual activity [26]?
Its residual activity is 100%.

What about the residual activity [27] of the same molecule?
Its residual activity is 100%.

What about the residual activity [28] of the same molecule?
Its residual activity is 100%.

What about the residual activity [29] of the same molecule?
The residual activity was 100%.

And the residual activity [30]?
Its residual activity is 88%.

And the residual activity [31]?
Its residual activity is 73%.

What about the residual activity [32] of the same molecule?
The residual activity was 100%.

What about the residual activity [33] of the same molecule?
The residual activity was 100%.

What about the residual activity [34] of the same molecule?
The residual activity was 100%.

What about the residual activity [35] of the same molecule?
The residual activity was 89%.

And the residual activity [36]?
The residual activity was 84%.

And the residual activity [37]?
The residual activity was 100%.

And the residual activity [38]?
The residual activity was 81%.

What about the residual activity [39] of the same molecule?
The residual activity was 100%.

And the residual activity [40]?
The residual activity was 100%.

What about the residual activity [41] of the same molecule?
The residual activity was 100%.

What about the residual activity [42] of the same molecule?
The residual activity was 100%.

What about the inhibition [43] of the same molecule?
The inhibition was 18.2%.

And the inhibition [44]?
Its inhibition is 26.1%.

What about the inhibition [45] of the same molecule?
Its inhibition is 50%.
